Data set [1] can be described thus: octanol saline (1:1) partition. The class given is physicochemical. The following applies: read-out: Partition Coefficients (converted). The text has this: Partition coefficients relate to octanol saline (1:1) partition
A short description of data set [2]: selective extraction and transport from an equimolar mixture of six bivalent metal ions through a CHCl3 bulk membrane (U-tube, ion chromatography). On the procedure:
Several of the ion binders, when incorporated into bulk membranes, selectively extract and transport a specific metal ion from a plurality of cations. An example is the quantitative separation of Cu^2+ from a mixture of six two-valent metal ions. This is illustrated by the quantitative removal of Cu^2+ from an equimolar mixture (10 mM each) of Pb^2+, Cu^2+, Cd^2+, Co^2+, Zn^2+ and Ni^2+ in water.

Data set [3] is described as follows: removal of Zn^2+ from an equimolar mixture of Zn^2+ and Cd^2+ (ion chromatography). The following applies: 20 mM each Zn^2+ and Cd^2+; 3.0 mM carrier in chloroform.
Data set [4] is described as follows: removal of Cu^2+ from an equimolar mixture of Cu^2+ and Fe^3+. As to conditions: 3 mM each Cu^2+ and Fe^3+, 6 mM citric acid, pH 6.8 with KOH; 4.5 mM carrier in chloroform; receiver 3 mM DTPA at pH 2. How it is done:
A third example is the removal of Cu^2+ from an equimolar mixture of Cu^2+ and Fe^3+ (3 mM each in the presence of 6 mM citric acid titrated to pH 6.8 with KOH) with less than 10% contamination of Fe^3+, by using a carrier (n=2, m=0, q=0, R^1 =CH3) 4.5 mM concentration in chloroform and in the receiver phase 3 mM DTPA at pH2.

As to `CCOC(=O)CCN(O)C(=O)COCC(C)(C)COCC(=O)N(O)CCC(=O)OCC`, the logP in data set [1] was 0.5.
`CC(C)CC(NC(=O)COCC(C)(C)COCC(=O)NC(CC(C)C)C(=O)N(C)O)C(=O)N(C)O` (stereo not drawn): the logP in data set [1] was 0.568.
On to `CC(C)C[C@H](NC(=O)CCOCC(C)(C)COCCC(=O)N[C@@H](CC(C)C)C(=O)N(C)O)C(=O)N(C)O`, for which, in data set [1], the logP is 1.2. Also, in data set [2] (10 mM each of Pb^2+, Cu^2+, Cd^2+, Co^2+, Zn^2+, Ni^2+ in water, 0.3 mM carrier in CHCl3, receiver 0.1 M H2SO4), the “removal of Cu^2+ from equimolar mixture” value is listed as “quantitatively removed”. Further, the “contamination by other metals” value in data set [2] (10 mM each of six metal ions, 0.3 mM carrier in CHCl3, receiver 0.1 M H2SO4, DIONEX ion chromatography) is “without a trace of contamination by other metals”. For the same molecule, the “metal content of receiver arm after extraction” value in data set [2] (after 160 hours, equimolar mixture of six cations (FIG. 1B)) is “containing only Cu^2+”. Further, the “contamination of Cd^2+ on removal of Zn^2+” value in data set [3] is given as “without any contamination of Cd^2+”.
Take `CN(O)C(=O)COCC(C)(C)COCC(=O)N(C)O` [q = 0, n=1, R^1=M, R^2=Me, R^3=Me]: in data set [1], the logP was 0.352.
For `CCCC(C)(COCC(=O)N(C)O)COCC(=O)N(C)O` [q = 0, n=1, R^1=Me, R^2=Me, R^3=Pr], the logP in data set [1] was 0.29.
Take `CN(O)C(=O)CCOCC(C)(C)COCCC(=O)N(C)O` [q = 0, n=2, R^1=Me, R^2=Me, R^3=Me]: in data set [1], the logP is -0.0862. For the same molecule, the “contamination of Fe^3+ on removal of Cu^2+” value in data set [4] is “less than 10%”.
As for `CC(NC(=O)COCC(C)(C)COCC(=O)NC(C)C(=O)N(C)O)C(=O)N(C)O` (stereo not drawn) [q = 1, n=1, R=Me, R^1=Me, R^2=Me, R^3=Me], the logP in data set [1] was 0.29.

These data come from patent US5149845A, “Extractants for the separation of transition and related metal ions” (Yeda Research and Development Co. Ltd., priority 1988, dated 1992).
